Data as given in US7638639B2, “Substituted pyrrolidine and related compounds” (Theravance, Inc., priority 2003, dated 2009).

Legend:
hM2 receptor [1] = target: T1, hM2 receptor (Homo sapiens, UniProt P08172); assay: Blockade of agonist-mediated inhibition of cAMP accumulation; type: cell-based; conditions: CHO-K1 cells expressing the hM2 receptor; read-out: Ki for blockade of oxotremorine-inhibition of forskolin-mediated cAMP accumulation
T1 construct: expressed in transfected cells
T1 sequence (P08172 1-466): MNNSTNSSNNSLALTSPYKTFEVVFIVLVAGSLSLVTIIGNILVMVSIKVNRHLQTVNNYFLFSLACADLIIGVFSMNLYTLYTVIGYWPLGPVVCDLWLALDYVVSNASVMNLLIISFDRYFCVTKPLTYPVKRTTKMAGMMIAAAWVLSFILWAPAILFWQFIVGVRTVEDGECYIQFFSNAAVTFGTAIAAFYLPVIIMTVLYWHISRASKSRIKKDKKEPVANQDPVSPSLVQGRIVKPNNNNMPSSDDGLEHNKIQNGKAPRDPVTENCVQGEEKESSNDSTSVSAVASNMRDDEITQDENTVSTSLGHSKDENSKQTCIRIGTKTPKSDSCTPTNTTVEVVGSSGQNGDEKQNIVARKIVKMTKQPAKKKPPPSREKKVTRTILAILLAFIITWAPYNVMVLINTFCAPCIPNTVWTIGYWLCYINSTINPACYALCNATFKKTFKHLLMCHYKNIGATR
Description: A. Blockade of Agonist-Mediated Inhibition of cAMP Accumulation
In this assay, the functional potency of a test compound was determined by measuring the ability of the test compound to block oxotremorine-inhibition of forskolin-mediated cAMP accumulation in CHO-K^1 cells expressing the hM2 receptor.
cAMP assays were performed in a radioimmunoassay format using the Flashplate Adenylyl Cyclase Activation Assay System with ^125I-cAMP (NEN SMP004B, PerkinElmer Life Sciences Inc., Boston, Mass.), according to the manufacturer's instructions.
Cells were rinsed once with dPBS and lifted with […] (0.05% trypsin/[…]) as described in the Cell Culture and Membrane Preparation section above. […] The cell pellet was then re-suspended in 10 mL dPBS, and the cells were counted with a Coulter Z1 Dual Particle Counter (Beckman Coulter, Fullerton, Calif.). […]
Reactions were incubated for 10 minutes at 37° C. and stopped by addition of 100 μL ice-cold detection buffer. Plates were sealed, incubated overnight at room temperature and counted the next morning on a PerkinElmer TopCount liquid scintillation counter (PerkinElmer Inc., Wellesley, Mass.). The amount of cAMP produced (pmol/well) was calculated based on the counts observed for the samples and cAMP standards, as described in the manufacturer's user manual. […]

hM2 receptor [2] = target: T1, hM2 receptor; assay: Blockade of agonist-mediated [35S]GTPγS binding; type: biochemical; conditions: CHO-K1 cells expressing the hM2 receptor; read-out: Ki for blockade of oxotremorine-stimulated [35S]GTPγS binding
Description: B. Blockade of Agonist-Mediated GTPγ[^35S] Binding
In a second functional assay, the functional potency of a test compound is determined by measuring the ability of the compound to block oxotremorine-stimulated [^35S]GTPγS binding in CHO-K^1 cells expressing the hM2 receptor. At the time of use, frozen membranes were thawed and then diluted in assay buffer with a final target tissue concentration of 5-10 μg protein per well. The membranes were briefly homogenized using a Polytron PT-2100 tissue disrupter and then added to the assay plates.
The EC90 value (effective concentration for 90% maximal response) for stimulation of [^35S]GTPγS binding by the agonist oxotremorine was determined in each experiment.
The assay plates were then incubated at 37° C. for 60 minutes. The assay plates were filtered over 1% BSA-pretreated GF/B filters using a PerkinElmer 96-well harvester. The plates were rinsed with ice-cold wash buffer for 3×3 seconds and then air or vacuum dried. Microscint-20 scintillation liquid (50 μL) was added to each well, and each plate was sealed and radioactivity counted on a topcounter (PerkinElmer). Data were analyzed by nonlinear regression analysis with the GraphPad Prism Software package (GraphPad Software, Inc., San Diego, Calif.) using the non-linear regression, one-site competition equation. […]

Ki (hM2 receptor [1]): < 5 nM
Ki (hM2 receptor [2]): < 5 nM
Compound: CNCCCCCCCCN1CC[C@@H](C(C(N)=O)(c2ccccc2)c2ccccc2)C1 [Example 1, 2-[(S)-1-(8-Methylaminooctyl)pyrrolidin-3-yl]-2,2-diphenylacetamide]
